This note sets out measurements from patent US20230134843A1, “TREATMENT OF STEM CELL DEFICIENCY” (OSPEDALE SAN RAFFAELE S.R.L., priority 2020, published 2023).

Each structure is given as a SMILES string. “Also recorded” adds a separate entry of the source.

Format in all cases: in vivo, mice
For assay [1], the system named is stem cell-like cells. Kind of assay: Stem cell-like cells detection (BrdU and p63 staining), stem cell deficiency model. The following applies: Fosaprepitant 1 mg/mL (FOSA 1). The text has this: Eight-week-old male mice C57BL6/N (Charles River, Calco, Italy) (WT mice, n=18) and Tac1-deficient B6.Cg-Tac1tm1Bbm/J (Jackson Laboratories, Bar Harbor, Me., USA) (TAC1-KO mice, n=18) were used in all experiments. TAC1-KO mice are homozygous null for the Tac1 gene. […] The corneal thickness and transparency as well as the corneal nerve length are similar to C57BL/6 mice [Barbariga M, Rabiolo A, Fonteyne P, Bignami F, Rama P, Ferrari G. The effect of aging on nerve morphology and substance P expression in mouse and human corneas. Investig Ophthalmol Vis Sci 2018; 59:5329-35. https://doi.org/10.1167/iovs.18-24707.]. Each animal was anesthetized with an intraperitoneal injection of tribromoethanol (250 mg/kg) and a topical anesthetic was applied to their ocular surface prior to the surgical procedure. Total disepithelization was performed based on the model previously described [Amirjamshidi H, Milani B Y, Sagha H M, Movahedan A, Shafiq M A, Lavker R M, et al. Limbal fibroblast conditioned media: A non-invasive treatment for limbal stem cell deficiency. Mol Vis 2011; 17:658], using a blunt spatula to scrap the entire corneal epithelium, including the limbus. Then, fluorescein staining was used to confirm complete removal of the corneal epithelium under the blue light of a slit-lamp microscope. After wounding, eyes were treated with ophthalmic moxifloxacin 1 time/day for 1 week to […]. Fourteen days after disepithelization mice were euthanized using carbon dioxide inhalation and subsequent cervical dislocation. Corneas were collected for immunostaining and western blot analysis. All experimental protocols were approved by the Animal Care and Use Committee of the Istituto di Ricovero e cura a Carattere Scientifico San Raffaele Scientific Institute, in accordance with the ARVO Statement for the Use of Animals in Ophthalmic and Vision Research.
To evaluate the pharmacological inhibition of Substance P, mice received 10 μL of Fosaprepitant topically (IVEMEND, Merck Sharp & Dohme Ltd., Hoddes-don, UK) in two different concentrations: 0.1 mg/mL (FOSA 0.1, n=5) or 1 mg/mL (FOSA 1, n=5) 4 times/day every 2 hours […]. Control animals received instead 10 μL of vehicle (PBS) (WT, n=5). The treatments started the same day that corneal disepithelization was performed.
Immediately after corneal dispepithelization, animals were intraperitoneally injected with […] (BrdU) (50 ug/g body weight, ab142567, Abcam) twice a day (9 a.m and 4 p.m), for 7 days. […] The images were acquired by epifluorescence microscope (Leica CTR5500; Leica Microsystems, Wetzlar, Germany) (20×) and analyzed with Image J software. A negative control using only the secondary antibody was used to establish a fluorescence threshold. […]

In assay [2] the target is T1, NK1R (Mus musculus, UniProt P30548).
T1 construct: NK1R is expressed by both corneal epithelial and stem cell-like cells; from tissue; host or cells: cornea / ocular surface of live C57BL6/N mice (topical dosing in vivo)
As to the kind of experiment: Corneal opacity grading score, stem cell deficiency model (Example 2). An excerpt:
(§1) Eight-week-old male mice C57BL6/N (Charles River, Calco, Italy) (WT mice, n=18) and Tac1-deficient B6.Cg-Tac1tm1Bbm/J (Jackson Laboratories, Bar Harbor, Me., USA) (TAC1-KO mice, n=18) were used in all experiments. TAC1-KO mice are homozygous null for the Tac1 gene. […] The corneal thickness and transparency as well as the corneal nerve length are similar to C57BL/6 mice [Barbariga M, Rabiolo A, Fonteyne P, Bignami F, Rama P, Ferrari G. The effect of aging on nerve morphology and substance P expression in mouse and human corneas. Investig Ophthalmol Vis Sci 2018; 59:5329-35. https://doi.org/10.1167/iovs.18-24707.]. […]
Every day after disepithelization, in vivo corneal photographs were taken using a digital camera (EOS 30D; Canon, Tokyo, Japan) attached to a slit-lamp microscope (Photoslitmap 40 SL-P; Zeiss, Oberkochen, Germany) to assess corneal condition. Corneal opacity was evaluated using a grading score (from 0-4; 0=completely clear, 4=completely opaque) previously described [Yoeruek E, Deuter C, Gieselmann S, Saygili O, Spitzer M S, Tatar O, et al. Long-term visual acuity and its predictors after cataract surgery in patients with uveitis. […] The percentage of green fluorescent area on the total corneal area was evaluated by analyzing images by Image J software (National Institutes of Health, Bethesda, Md., USA).

The test system of assay [3] is goblet cells. Kind of assay: Goblet cell identification by PAS staining in the cornea, stem cell deficiency model. The following applies: Fosaprepitant 1 mg/mL (FOSA 1); p<0.05.
Excerpt: as §1, with “https://doi.org/10.1167/iovs.18-24707.]. Each animal was anesthetized with an intraperitoneal injection of tribromoethanol (250 mg/kg) and a topical anesthetic was applied to their ocular surface prior to the surgical procedure.” for “https://doi.org/10.1167/iovs.18-24707.].”
To identify the presence of goblet cells, periodic acid Schiff (PAS) staining was performed following the same experimental protocol previously described [Ferrari G, Bignami F, Giacomini C, Franchini S, Rama P. Safety and efficacy of topical infliximab in a mouse model of ocular surface scarring. […] The number of PAS+ cells was quantified using Image J software (National Institutes of Health, Bethesda, Md., USA), and the results were expressed as PAS+ cells per section.

T1 sequence (P30548 whole entry): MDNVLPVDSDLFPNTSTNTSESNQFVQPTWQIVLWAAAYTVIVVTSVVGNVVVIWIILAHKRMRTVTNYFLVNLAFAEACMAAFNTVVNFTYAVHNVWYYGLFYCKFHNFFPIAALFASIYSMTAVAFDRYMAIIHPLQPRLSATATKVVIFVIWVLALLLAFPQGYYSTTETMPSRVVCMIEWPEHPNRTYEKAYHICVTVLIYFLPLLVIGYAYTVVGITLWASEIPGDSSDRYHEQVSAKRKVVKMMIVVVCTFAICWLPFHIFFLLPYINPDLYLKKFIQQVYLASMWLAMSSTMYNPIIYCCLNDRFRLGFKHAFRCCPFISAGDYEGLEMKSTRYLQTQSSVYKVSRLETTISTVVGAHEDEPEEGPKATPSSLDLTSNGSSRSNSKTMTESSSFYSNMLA

Consider `C[C@@H](O[C@H]1OCCN(Cc2nc(=O)n(P(=O)(O)O)[nH]2)[C@H]1c1ccc(F)cc1)c1cc(C(F)(F)F)cc(C(F)(F)F)c1` [Fosaprepitant, [3-{[(2R,3S)-2-[(1R)-1-[3,5-bis(trifluoromethyl)phenyl]ethoxy]-3-(4-fluorophenyl)morpholin-4-yl]methyl}-5-oxo-2H-1,2,4-triazol-1-yl]phosphonic acid], for which, in assay [1], the “p63 content compared to WT” value is given as “no differences”. In assay [1] (p<0.01), the “BrdU staining in the corneal epithelium compared to WT” value was “significant increase” and the “number of stem cell-like cells (epithelial stem cells) compared to WT” value is given as “increase number”. In assay [1] (p<0.05), the “percentage of p63/BrdU colocalization compared to WT” value is reported as “increased percentage; also recorded: higher percentage”. The “corneal opacity compared to WT” value in assay [2] (Fosaprepitant 0.1 mg/mL (FOSA 0.1) topically 4 times/day for 16 days) is “did not show any improvement; also recorded: no improvement”. For the same compound, in assay [2] (Fosaprepitant 1 mg/mL (FOSA 1) topically 4 times/day for 16 days, p<0.05), the “corneal transparency compared to WT” value is “significant improvement; also recorded: better corneal transparency”. Moreover, the “PAS+ cells (goblet cells) in the cornea compared to WT” value in assay [3] is reported as “Reduced number; also recorded: decrease”.
